In US20170112861A1, “DRUG DELIVERY ENHANCER COMPRISING SUBSTANCE FOR ACTIVATING LYSOPHOSPHOLIPID RECEPTORS” (Osaka University, priority 2014, published 2017):

Legend:
[1] = system: tumor blood vessels of LLC cell tumors; test: Structural changes in tumor blood vessels after S1P administration (anti-CD31 immunostaining); format: in vivo; details: LLC tumor-bearing mice, S1P 0.3 mg/kg tail vein once daily for three days, 24 hours after final administration
Method: LLC cells were subcutaneously inoculated into C57BL/6 […] mice aged 8 weeks (females, SLC, Inc.) in the same manner as in Example 1. S1P (Avanti Polar Lipids, Inc.) was dissolved in PBS at 10 mM and the solution was stored at -30° C. as a stock solution. Before use, the stock solution was thawed and homogenized with an ultrasonic cleaner (SND Co., Ltd.) for 1 minute. The solution was diluted in PBS before administration so that the concentration of S1P was 0.3 mg/kg in 100 μL PBS. The prepared solution was used for S1P administration. Mice on day 9 post-inoculation of LLC cells (individuals with a tumor volume of 60 to 80 mm^3) were subjected to the experiment. The mice were divided into two groups: control group and S1P group (n=3). From the day of grouping, S1P was administered to the tail vein of the S1P group mice at a dose of 0.3 mg/kg in 100 μL PBS once daily for consecutive three days. To the control group mice, PBS (100 μL) was administered instead of S1P. At 24 hours after the final administration, the tumors were harvested from the mice, and the specimens of tumor blood vessels were prepared in the same manner as in Example 1. The specimens were observed and photographed under a confocal laser microscope (Leica).

[2] = system: Mouse pancreatic vascular endothelial cell line (MS-1); test: In vitro barrier function of endothelial cell-cell junctions (ECIS-Zθ, resistance between cells Rb); format: cell-based; details: MS-1 cells, 10 μM
Method: In vitro barrier function of the cell-cell junctions of vascular endothelial cells in the presence of LPA or VPC 31144 (S) was analyzed using a real-time cell ECIS-Zθ analyzer (Applied Biophysics).
LPA and VPC 31144 (S) were each dissolved in 50% ethanol as a 10 mM LPA stock solution and stored at −30° C. Before use, the LPA stock solution was thawed and homogenized with an ultrasonic cleaner (SND Co., Ltd.) for 1 minute. The solution was diluted in a serum-free culture medium supplemented with 0.1% BSA to a concentration of 10 μM.
Mouse pancreatic vascular endothelial cell line (MS-1) was used. The cells were suspended in DMEM (Sigma) containing 5% FBS. The cell suspension was seeded on a well plate with electrodes (8W10E+, 8 wells) specially designed for the analyzer at a density of 1×10^5 cells in 400 μL per well, and the cells were cultured overnight in an incubator to confluence. The medium was replaced by serum-free culture medium containing 0.1% BSA, and the cells were incubated for 4 hours. The medium was replaced by culture medium (serum-free culture medium containing 0.1% BSA) containing 10 μM LPA or VPC 31144 (S). The medium of the control cultures was replaced by serum-free culture medium containing 0.1% BSA. After replacement of the medium, resistance between cells (Rb) was measured in real time to evaluate the barrier function.

Structure (SMILES)	formation of a network of tumor blood vessels [1]	speed of barrier function increase ([2]; immediately after addition, compared with LPA)	electric resistance (Rb), barrier function in endothelial cells ([2]; serum-free medium with 0.1% BSA, vs control)
CCCCCCCCCCCCC/C=C/[C@@H](O)[C@@H](N)COP(=O)(O)O [S1P, sphingosine-1-phosphate]	the formation of a network of tumor blood vessels was induced		
CCCCCCCC/C=C\CCCCCCCC(=O)N[C@@H](CO)COP(=O)(O)O [VPC 31144, N-{(1S)-2-hydroxy-1-[(phosphonooxy)methyl]ethyl}(9Z) octadec-9-enamide]		more rapidly increased the barrier function immediately after the administration, as compared with addition of LPA	also increased the barrier function in endothelial cells
